# Assay results from patent publication US7314709B2, “Compositions and methods for detecting and quantifying COX-2 activity by lipoamino acid metabolism” (Vanderbilt University, priority 2002, dated 2008).
# Numbering of substitutions follows the chain as printed.
# Tests used:
# Assay type in all cases: biochemical, murine
# [1] = molecular target: T1, mCOX-2 V4341/R513H/V5231 (VRV) (Mus musculus, UniProt Q05769, R499H/V420I/V509I); experiment: Initial O2 uptake rate with side pocket triple mutant (VRV); details: 200 nM enzyme; AA 100 μM, NAGly 200 μM
# T1 construct: made in house; host or cells: Sf-9 insect cells
# T1 sequence (Q05769 18-604 V420I/R499H/V509I): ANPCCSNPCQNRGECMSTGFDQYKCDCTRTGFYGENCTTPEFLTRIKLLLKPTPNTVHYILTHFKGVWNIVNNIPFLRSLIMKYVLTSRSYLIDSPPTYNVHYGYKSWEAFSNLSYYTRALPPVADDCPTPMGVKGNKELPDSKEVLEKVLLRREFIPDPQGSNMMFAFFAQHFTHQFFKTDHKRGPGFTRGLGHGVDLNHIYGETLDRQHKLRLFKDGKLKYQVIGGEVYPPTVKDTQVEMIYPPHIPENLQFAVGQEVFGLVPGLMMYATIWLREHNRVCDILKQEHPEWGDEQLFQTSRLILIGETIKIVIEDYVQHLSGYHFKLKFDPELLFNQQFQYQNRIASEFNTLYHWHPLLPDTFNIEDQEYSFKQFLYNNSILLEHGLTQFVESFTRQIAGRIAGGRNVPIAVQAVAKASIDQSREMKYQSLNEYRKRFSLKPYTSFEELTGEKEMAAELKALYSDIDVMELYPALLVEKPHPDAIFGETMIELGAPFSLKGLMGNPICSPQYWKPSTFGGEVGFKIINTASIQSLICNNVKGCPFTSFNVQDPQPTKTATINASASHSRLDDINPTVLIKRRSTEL
# Description: (§1) Enzymology: COX-1 was purified from ram seminal vesicles as previously described. Site-directed mutagenesis of COX-2 was performed as described previously. Recombinant COX-2 enzymes were expressed in Sf-9 insect cells and purified by ion-exchange chromatography and gel filtration as previously described. Apo-enzymes were reconstituted with hematin prior to activity assays.
# (§2) COX activity was quantified as previously described. Initial reaction velocity data were obtained from the linear portion of the oxygen uptake curves. Oxygraph data were analyzed by nonlinear regression with Enzyme Kinetics 1.5 software (Trinity Software, Campton, N.H.).
# (§3) Previous studies have identified residues in the side pocket of COX-2, especially Arg-513, as critical determinants of 2-AG oxygenation by COX-2 [13]. […] (FIG. 5).
# mCOX-2 V523I = molecular target: T2, mCOX-2 V523I (Mus musculus, UniProt Q05769, V509I); experiment: Initial O2 uptake rate with side pocket mutant V523I; details: 200 nM enzyme; AA 100 μM
# T2 construct: made in house; host or cells: Sf-9 insect cells
# T2 sequence (Q05769 18-604 V509I): T1 sequence (Q05769 18-604 V420I/R499H/V509I) with I403V, H482R
# Description: as §1, §2, §3
# mCOX-2 R513H/V523I = molecular target: T3, mCOX-2 R513H/V523I (Mus musculus, UniProt Q05769, R499H/V509I); experiment: Initial O2 uptake rate with side pocket double mutant R513H/V523I; details: 200 nM enzyme; AA 100 μM, NAGly 200 μM
# T3 construct: made in house; host or cells: Sf-9 insect cells
# T3 sequence (Q05769 18-604 R499H/V509I): T1 sequence (Q05769 18-604 V420I/R499H/V509I) with I403V
# Description: as §1, §2, §3
# mCOX-2 E524L = molecular target: T4, mCOX-2 E524L (Mus musculus, UniProt Q05769, E510L); experiment: Initial O2 uptake rate with constriction site mutant E524L; details: 200 nM enzyme; AA 100 μM, NAGly 200 μM
# T4 construct: made in house; host or cells: Sf-9 insect cells
# T4 sequence (Q05769 18-604 E510L): T1 sequence (Q05769 18-604 V420I/R499H/V509I) with I403V, H482R, I492V, E493L
# Description: as §1, §2
# At the bottom of the substrate (and inhibitor) binding site, there is a hydrogen bonding network comprised of residues Arg-120, Tyr-355, and Glu524, that form a constriction which is present in both COX isoforms. These residues contribute to the binding of the carboxylate in both AA and NSAIDs, and the glycerol moiety of 2-AG [12,23-27].
structure (smiles),measurement,setting,value
"CCCCC/C=C\C/C=C\C/C=C\C/C=C\CCCC(=O)O [AA, arachidonic acid]",effect of mutation on oxygenation,[1],did not greatly affect
same,effect of mutation on ability to metabolize AA,mCOX-2 V523I,did not greatly affect
same,effect of mutation on oxygenation rate,mCOX-2 R513H/V523I,did not greatly affect
same,reduction in initial rate of oxygenation compared with wild-type,mCOX-2 E524L,< 3 fold
